Laboratory results taken from the supplement of paper PMC9938120.

Experiments:
Test in all cases: drug sensitivity score (DSS3, normalised partial AUC of % inhibition dose-response) (DSS (score)); higher = more sensitive (stronger inhibition of viability); extreme values may be limits of the assay
FMOC02_1 = patient-derived low-grade serous ovarian cancer cells; settings: 72 h; library: FO5A; assay format: 2D, 384-well, CellTiter-Glo
Procedure, shortened: (§1)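 On 384-well flat clear-bottom plates carrying compounds at five concentrations across a 10,000-fold range, patient-derived ovarian cancer cells below passage 10 were incubated for 72 h at 37 °C with 5% CO2. CellTiter-Glo readout of viability was processed in Breeze. A higher drug sensitivity score, defined as the partial area under the percent-inhibition dose-response curve divided by the log of the upper asymptote, means greater sensitivity.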

FMOC02_2 = patient-derived low-grade serous ovarian cancer cells; settings: 72 h; library: FO5A; assay format: 2D, 384-well, CellTiter-Glo
Procedure, shortened: as §1

FMOC02_3 = patient-derived low-grade serous ovarian cancer cells; settings: 72 h; library: FO5A; assay format: 2D, 384-well, CellTiter-Glo
Procedure, shortened: as §1

FMOC03 = patient-derived mucinous ovarian cancer cells; settings: 72 h; library: FO5A; assay format: 2D, 384-well, CellTiter-Glo
Procedure, shortened: as §1

FMOC04 = patient-derived high-grade serous ovarian cancer cells; settings: 72 h; library: FO5A; assay format: 2D, 384-well, CellTiter-Glo
Procedure, shortened: as §1

FMOC06 = patient-derived mucinous ovarian cancer cells; settings: 72 h; library: FO5A; assay format: 2D, 384-well, CellTiter-Glo
Procedure, shortened: as §1

FMOC09 = patient-derived high-grade serous ovarian cancer cells; settings: 72 h; library: FO5A; assay format: 2D, 384-well, CellTiter-Glo
Procedure, shortened: as §1

FMOC11 = patient-derived high-grade serous ovarian cancer cells; settings: 72 h; library: FO5A; assay format: 2D, 384-well, CellTiter-Glo
Procedure, shortened: as §1

FMOC14 = patient-derived high-grade serous ovarian cancer cells; settings: 72 h; library: FO5A; assay format: 2D, 384-well, CellTiter-Glo
Procedure, shortened: as §1

FMOC17 = patient-derived low-grade serous ovarian cancer cells; settings: 72 h; library: FO5A; assay format: 2D, 384-well, CellTiter-Glo
Procedure, shortened: as §1

FMOC22 = patient-derived mucinous ovarian cancer cells; settings: 72 h; library: FO5A; assay format: 2D, 384-well, CellTiter-Glo
Procedure, shortened: as §1

FMOC24 = patient-derived high-grade serous ovarian cancer cells; settings: 72 h; library: FO5A; assay format: 2D, 384-well, CellTiter-Glo
Procedure, shortened: as §1

FMOC25_1 = patient-derived low-grade serous ovarian cancer cells; settings: 72 h; library: FO4B; assay format: 2D, 384-well, CellTiter-Glo
Procedure, shortened: as §1

FMOC25_2 = patient-derived low-grade serous ovarian cancer cells; settings: 72 h; library: FO5A; assay format: 2D, 384-well, CellTiter-Glo
Procedure, shortened: as §1

FMOC27 = patient-derived low-grade serous ovarian cancer cells; settings: 72 h; library: FO5A; assay format: 2D, 384-well, CellTiter-Glo
Procedure, shortened: as §1

FMOC28 = patient-derived low-grade serous ovarian cancer cells; settings: 72 h; library: FO5A; assay format: 2D, 384-well, CellTiter-Glo
Procedure, shortened: as §1

SMILES	drug sensitivity score (FMOC02_1)	drug sensitivity score (FMOC02_2)	drug sensitivity score (FMOC02_3)	drug sensitivity score (FMOC03)	drug sensitivity score (FMOC04)	drug sensitivity score (FMOC06)	drug sensitivity score (FMOC09)	drug sensitivity score (FMOC11)	drug sensitivity score (FMOC14)	drug sensitivity score (FMOC17)	drug sensitivity score (FMOC22)	drug sensitivity score (FMOC24)	drug sensitivity score (FMOC25_1)	drug sensitivity score (FMOC25_2)	drug sensitivity score (FMOC27)	drug sensitivity score (FMOC28)
COc1cc(N2CCN(C)CC2)ccc1Nc1nccc(-c2cn(C)c3cnccc23)n1 [AZ191]	4	3.8	2.9	0.5	0.2	1.9	2.2	1.4	0.4	1.7	0.7	6.15	0	1.5	1.6	2.3
CC(C)n1cnc2c(NCCc3ccc(O)cc3)nc(-c3csc4ccccc34)nc21 [StemRegenin 1]	4.2	6	4.7	4.8	1.95	4.5	0.3	1	0.6	6.8	2.7	6.15	1.6	6.1	6.9	2.9
COc1cc2c(NC3CCN(C(C)C)CC3)nc(N3CCC(F)(F)CC3)nc2cc1OCCCN1CCCC1 [UNC0642]	4	1.1	2.3	0	1.2	0.2	0.2	2.3	0.1	2.1	0.1	4.3	0	0.7	0	0
CCn1c(C(=O)N(C2CC2)C2CC2)cc2c3c(ncn3C)c(Nc3cc(C)n(C)n3)nc21	0.6	1.4	4.7	0.9	0	0	2.1	0.1	0	2.8	0	1.05	0	0.4	0.8	0.9
N#CC1(c2ccc(NC(=O)c3cccnc3NCc3ccncc3)cc2)CCCC1 [Apatinib]	0.3	1.1	1.5	0	0.6	0	0	0	0	0	0	0.1	2.3	1.5	0	4.5
CC(=O)c1c(C)c2cnc(Nc3ccc(N4CCNCC4)cn3)nc2n(C2CCCC2)c1=O [Palbociclib]	3.8	4.9	6.2	2.7	0.65	2.5	0.5	1.4	1.6	0.7	0.5	2.95	2.5	5.2	1.1	3.9
CC(=O)O[C@]1(C(C)=O)CC[C@H]2[C@@H]3C=C(C)C4=CC(=O)CC[C@]4(C)[C@H]3CC[C@@]21C [Megestrol acetate]	0.3	0	0	0.2	0	0.4	0	0	0	0	0	0	0	0	4.6	1
CCC1(c2ccc(N)cc2)CCC(=O)NC1=O (configuration not stated) [Aminoglutethimide]	0	0.1	0.6	0	0	0	0	0	0	0.1	0	1.05	0.4	0	0	0
Nc1nc(N)c2nc(-c3cccc(O)c3)c(-c3cccc(O)c3)nc2n1 [TG100-115]	0	0	1.4	0.1	0	0.4	0.3	0.4	0.7	1.1	0	0.1	0	0.7	0	0
Cc1ccc(NC(=O)c2ccc(CN3CC[C@H](N(C)C)C3)c(C(F)(F)F)c2)cc1Nc1nccc(-c2cncnc2)n1 [Bafetinib]	0.2	0	0.1	0	0	0	0	0	0	0	0	0	0	0	0	0.1
O=C(O)CCCCC(CCSCc1ccccc1)SCc1ccccc1 (configuration not stated) [CPI-613]	0	0	0	0	0	0	0	0	0	2.5	0	0	0	0	0	2.8
CN1CCc2c(c3ccccc3n2Cc2ccc(C(=O)NO)cc2)C1 [Tubastatin A]	2.9	1.4	3.4	0.5	1.4	0	0.5	1.7	1.3	0	0.8	0.85	0	1.3	0	2.8
